The text below walks through data of BindingDB's records for patent US20230348371 (Shanghai Senhui Medicine, 2023).

pIC50: −log10 of the molar value.

For the experiment, the target named is ATP-binding cassette sub-family C member 8 (Homo sapiens, UniProt Q09428). As to the kind of experiment: Binding Activity of the Compounds of the Present Disclosure for SUR1 Receptor. As to the method:
The plate was incubated at 4° C. for 1 h.f) The […]-96 GF/C and […]-96 GF/B plates were washed twice with Universal Harvester, each time with 50 mL of washing solution.g) The SUR1 receptor reaction system was transferred to a […]-96 GF/B plate with Universal Harvester, and 900 μL of washing solution was added to each well to wash the GF/B plate 4 times. The washed […]-96 GF/B plate was dried in an oven at 55° C. for 10 min.h) 40 μL of ULTIMA GOLD scintillation solution was added to each well, and the plate was read using Microbeta.

ATP-binding cassette sub-family C member 8, sequence (Q09428 whole entry): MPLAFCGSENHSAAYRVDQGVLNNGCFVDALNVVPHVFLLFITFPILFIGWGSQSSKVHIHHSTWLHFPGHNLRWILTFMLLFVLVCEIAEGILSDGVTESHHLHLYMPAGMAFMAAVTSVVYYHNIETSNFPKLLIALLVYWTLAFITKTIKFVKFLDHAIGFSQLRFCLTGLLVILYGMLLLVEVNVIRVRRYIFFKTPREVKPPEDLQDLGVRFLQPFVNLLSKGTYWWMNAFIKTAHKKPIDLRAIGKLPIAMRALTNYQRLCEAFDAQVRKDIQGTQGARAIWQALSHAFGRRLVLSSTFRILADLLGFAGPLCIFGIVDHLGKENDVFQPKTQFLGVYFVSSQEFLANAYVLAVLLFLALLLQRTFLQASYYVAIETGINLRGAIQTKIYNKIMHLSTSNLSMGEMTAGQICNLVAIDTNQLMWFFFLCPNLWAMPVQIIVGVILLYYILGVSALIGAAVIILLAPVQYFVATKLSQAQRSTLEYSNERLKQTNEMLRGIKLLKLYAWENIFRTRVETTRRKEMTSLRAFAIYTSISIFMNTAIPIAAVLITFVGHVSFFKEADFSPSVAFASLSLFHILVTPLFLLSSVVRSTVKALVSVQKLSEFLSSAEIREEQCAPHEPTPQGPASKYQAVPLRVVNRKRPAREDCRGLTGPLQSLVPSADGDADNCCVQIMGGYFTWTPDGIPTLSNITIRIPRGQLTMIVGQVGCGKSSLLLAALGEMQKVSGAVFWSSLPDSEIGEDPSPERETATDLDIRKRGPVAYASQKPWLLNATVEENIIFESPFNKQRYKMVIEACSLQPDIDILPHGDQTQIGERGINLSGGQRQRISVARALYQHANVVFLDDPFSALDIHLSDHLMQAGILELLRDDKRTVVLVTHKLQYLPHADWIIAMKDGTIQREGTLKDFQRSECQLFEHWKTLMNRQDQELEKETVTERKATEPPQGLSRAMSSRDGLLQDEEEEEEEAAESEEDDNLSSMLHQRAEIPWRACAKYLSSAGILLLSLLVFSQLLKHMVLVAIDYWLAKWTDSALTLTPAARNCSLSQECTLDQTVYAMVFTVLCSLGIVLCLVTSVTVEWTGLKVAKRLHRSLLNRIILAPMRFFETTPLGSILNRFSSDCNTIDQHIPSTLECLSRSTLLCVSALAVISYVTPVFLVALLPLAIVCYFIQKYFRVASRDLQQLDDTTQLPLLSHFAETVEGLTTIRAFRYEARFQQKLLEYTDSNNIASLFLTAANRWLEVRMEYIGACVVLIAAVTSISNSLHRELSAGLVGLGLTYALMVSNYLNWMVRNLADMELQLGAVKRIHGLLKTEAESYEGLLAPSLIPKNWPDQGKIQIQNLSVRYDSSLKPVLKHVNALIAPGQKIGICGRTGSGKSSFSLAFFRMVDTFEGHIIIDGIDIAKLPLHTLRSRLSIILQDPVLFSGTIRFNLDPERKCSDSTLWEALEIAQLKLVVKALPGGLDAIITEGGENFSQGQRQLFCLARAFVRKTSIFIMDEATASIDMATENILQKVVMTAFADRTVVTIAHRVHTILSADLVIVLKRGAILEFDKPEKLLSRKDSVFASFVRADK

The pIC50 is −log10 of the IC50, conventionally taken in molar units. Lower therefore signals a high IC50. Molecule `COc1ccc(Cl)cc1C(=O)NCCc1ccc(S(=O)(=O)NC(=O)N[C@H]2CC[C@H](O)CC2)cc1` [US20230348371, Compound 4] had a pIC50 of 8.10.
